This passage reports IC50 and Kd results from ChEMBL document CHEMBL3085717, “Structural and thermodynamic dissection of linear motif recognition by the E. coli sliding clamp” (J Med Chem, 2013).

pIC50, pKd: −log10 of the molar value. Peptide text beside a SMILES is read from it.

A short description of this assay: Displacement of 5'-fluorescein(FAM)-QLDLF-OH from Escherichia coli AN1459 DNA polymerase 3beta by fluorescence polarization assay. For orientation: Polarisation of emitted light reports the rotation of a fluorescent probe.
Ac-QLDLA-OH showed a negative logarithm of the IC50 (pIC50) of 3.26 and a pKd of 3.59.

For the molecule Ac-QLDVF-OH, the pIC50 is 2.92 and the pKd is 3.25.

As to Ac-QLDGF-OH, the pIC50 was 2.82 and the pKd was 3.15.

On to Ac-GLDLF-OH, for which the negative-log IC50 (pIC50) was 3.01 and the pKd is 3.34.

In turn, Ac-QADLF-OH had a pIC50 of 4.10 and a pKd of 4.44.

Ac-QLDAF-OH had a negative-log IC50 (pIC50) of 3.61 and a pKd of 3.94.

Regarding `CC(=O)N[C@@H](CCC(N)=O)C(=O)N[C@@H](CC(C)C)C(=O)N[C@@H](CC(=O)O)C(=O)N[C@@H](CC(C)C)C(=O)N[C@@H](Cc1ccccc1)C(=O)O`, the pIC50 is 5.72 and the pKd is 6.05.

In the case of Ac-QLDLG-OH, the pIC50 was 2.97 and the pKd was 3.30.

As for `CC(=O)N[C@@H](CC(C)C)C(=O)N[C@@H](Cc1ccccc1)C(=O)O` (Ac-Leu-Phe-OH), the pIC50 is 2.96.

In turn, Ac-QVDLF-OH had a pIC50 of 4.22 and a pKd of 4.55.

Ac-ALDLF-OH: the pIC50 is 3.22 and the pKd is 3.55.

Molecule Ac-QLGLF-OH gave a pIC50 of 4.98 and a pKd of 5.31.

Molecule Ac-QGDLF-OH gave a pIC50 of 4.44 and a pKd of 4.77.

The molecule Ac-NLDLF-OH showed a pIC50 of 4.36 and a pKd of 4.69.

In turn, Ac-QLDLL-OH had a pIC50 of 4.68 and a pKd of 5.01.

As to Ac-ELDLF-OH, the negative logarithm of the IC50 (pIC50) was 3.65 and the pKd was 3.98.

As to `CC(C)C[C@H](NC(=O)[C@H](CC(=O)O)NC(=O)[C@H](CC(C)C)NC(=O)[C@@H](N)CCC(N)=O)C(=O)N[C@@H](Cc1ccccc1)C(=O)O`, the pIC50 is 4.20 and the pKd is 4.53.

Take `CC(C)CCC(=O)N[C@@H](Cc1ccccc1)C(=O)O`: the pIC50 is 2.35.

Consider Ac-QLALF-OH, for which the pIC50 was 5.47 and the pKd is 5.80.

In general, pIC50 refers to the negative decadic logarithm of the IC50, by convention in mol/L. The pKd is −log10 of the Kd, conventionally taken in molar units. A lower pKd goes with a high Kd.
